Test [1] addresses T1, mTORC1 (Homo sapiens, UniProt P42345+P62942).
T1 construct: endogenous in cells; host or cells: PC-3 cells
Description: mTORC1 inhibition in PC-3 cells, AlphaLISA of p70S6K pT389 levels. The test is classed as cell-based. The conditions noted are these: mTORC1 as measured by inhibition of p70S6K pT389 levels, read-out: mTROC1 IC50. The method, then:
mTORC1 inhibition was determined via analysis of phosphorylation levels of Phospho-p70 S6 kinase (p70S6K pT389) and Phospho-S6 Ribosomal Protein (pRPS6 pS240/pS244) with the corresponding AlphaLISA kits (PerkinElmer Alpha SF Ultra™ Multiplex phospho (Thr389)/total p70 S6K Assay Kit (Eu/Tb) and AlphaLISA SF Ultra™ p-Ribosomal Protein S6 (Ser240/244) Assay Kit).
%−activity=100*((Sample−Low control)/(High control−Low control))
(In general: Alpha assays give light when donor and acceptor beads are brought close together.)

Test [2] addresses FKBP12 ternary complex with FRB (Homo sapiens, UniProt P42345+P62942). Description: SPR assay to characterize ternary complex formation with FKBP12 (FRB injected over compound-saturated FKBP12). The test is classed as binding. Particulars: FRB dilutions with 100 nM test compound over immobilized FKBP12. As to the method:
Biotinylated avi-FKBP12 was immobilized on a streptavidin chip (Cytiva Series S SA) using a Biacore 8K or 8k+ (Cytiva). To achieve an immobilization level of 100 RU, 0.3 μg/ml biotinylated avi-FKBP12 were injected for 80 sec at a flow rate of 10 μl/min. Serial dilution of FRB was prepared (12 concentrations, 3-fold dilutions, 0.00011-20 μM) and supplemented with 100 nM of a test compound. A-B-A injection mode was used to ensure saturation immobilized FKBP12 with respective test compound. 100 nM solution of the respective test compound was injected before FRB injection for 120 sec and during dissociation for 420 sec. The FRB dilutions were then injected 120 seconds contact time with increasing concentrations. Rapamycin was used as reference sample. 50 mM HEPES pH 7.5, 150 mM NaCl, 2 mM MgCl2, 1 mM DTT, 0.05% Tween-20, 1% DMSO was used as running buffer at a flow rate of 30 μl/min. The multi-cycle kinetics data were fit to a 1:1 binding model to measure the association rate ka (1/Ms), the dissociation rate kd (1/s) and the affinity Kd (M). In case of fast association and dissociation, steady state affinity analysis following the law of mass action was used to determine the affinity Kd (M).

Test [3] concerns the target FKBP12 (Homo sapiens, UniProt P62942). Description: SPR assay to determine binding affinity to FKBP12 (direct binding). Particulars: immobilized biotinylated avi-FKBP12, single-cycle kinetics. As to the method: SPR Assay to Determine Binding Affinity to FKBP12.
Biotinylated avi-FKBP12 was immobilized on a streptavidin chip (Cytiva Series S SA) using a Biacore 8K or 8k+ (Cytiva). […] Test compounds described in Table 11 were diluted in DMSO to 100× working concentration. Each test compound was 100-fold diluted in 50 mM HEPES pH 7.5, 150 mM NaCl, 2 mM MgCl2, 1 mM DTT, 0.05% Tween-20 and a serial dilution prepared (9 concentrations, 3-fold dilutions, 0.08-500 nM). […] The compound dilutions were then injected at 100 uL/min for 120 seconds contact time in sequence with increasing concentrations. Dissociation was monitored for 3600 seconds. 50 mM HEPES pH 7.5, 150 mM NaCl, 2 mM MgCl2, 1 mM DTT, 0.05% Tween-20, 1% DMSO was used as running buffer. The single-cycle kinetics data were fit to a 1:1 binding model to measure the association rate ka (1/Ms), the dissociation rate kd (1/s) and the affinity Kd (M).

For orientation: IC50 means the point on the concentration scale where inhibition reaches its midpoint. The term Kd denotes the constant that tells how readily two partners part at equilibrium. Lower therefore signals higher affinity.

Chain of FKBP12 (P62942 whole entry, species assumed): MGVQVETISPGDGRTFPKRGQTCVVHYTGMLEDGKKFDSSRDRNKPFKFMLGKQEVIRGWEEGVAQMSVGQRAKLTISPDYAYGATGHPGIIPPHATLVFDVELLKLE

For `CO[C@@H]1C[C@H](C[C@@H](C)[C@@H]2CC(=O)[C@H](C)/C=C(\C)[C@@H](O)[C@@H](OC)C(=O)[C@H](C)C[C@H](C)/C=C/C=C/C=C(\C)[C@H](OC3CC3)C[C@@H]3CC[C@@H](C)[C@@](O)(O3)C(=O)C(=O)N3CCCC[C@H]3C(=O)O2)CC[C@H]1OCCO` [Compound 128, (1R,9S,12S,15R,16E,18R,19R,21R,23S,24E,26E,28E,30R,32S,35R)-30-(cyclopropoxy)-1,18-dihydroxy-12-[(1R)-2-[(1S,3R,4R)-4-(2-hydroxyethoxy)-3-methoxy-cyclohexyl]-1-methyl-ethyl]-19-methoxy-15,17,21,23,29,35-hexamethyl-11,36-dioxa-4-azatricyclo[30.3.1.04,9]hexatriaconta-16,24,26,28-tetraene-2,3,10,14,20-pentone], the IC50 in test [1] is 0.8 to 1.5 nM. Besides, the Kd in test [2] is < 500 nM; in test [3] it was > 1 nM.
As to `CO[C@@H]1C[C@H](C[C@@H](C)[C@@H]2CC(=O)[C@H](C)/C=C(\C)[C@@H](O)[C@@H](OC)C(=O)[C@H](C)C[C@H](C)/C=C/C=C/C=C(\C)[C@H](OC3CC3)C[C@@H]3CC[C@@H](C)[C@@](O)(O3)C(=O)C(=O)N3CCCC[C@H]3C(=O)O2)CC[C@H]1O` [Compound 519, (1R,9S,12S,15R,16E,18R,19R,21R,23S,24E,26E,28E,30R,32S,35R)-30-(cyclopropoxy)-1,18-dihydroxy-12-[(1R)-2-[(1S,3R,4R)-4-hydroxy-3-methoxy-cyclohexyl]-1-methyl-ethyl]-19-methoxy-15,17,21,23,29,35-hexamethyl-11,36-dioxa-4-azatricyclo[30.3.1.04,9]hexatriaconta-16,24,26,28-tetraene-2,3,10,14,20-pentone], in test [1], the IC50 was < 0.8 nM. Moreover, the Kd is < 500 nM in test [2] and < 0.3 nM in test [3].
Taken in the same sequence, the figures for `CO[C@@H]1C[C@H](C[C@@H](C)[C@@H]2CC(=O)[C@H](C)/C=C(\C)[C@@H](O)[C@@H](OC)C(=O)[C@H](C)C[C@H](C)/C=C/C=C/C=C(\C)[C@@H](OCC3COC3)C[C@@H]3CC[C@@H](C)[C@@](O)(O3)C(=O)C(=O)N3CCCC[C@H]3C(=O)O2)CC[C@H]1OCCO` [Compound 474, (1R,9S,12S,15R,16E,18R,19R,21R,23S,24E,26E,28E,30S,32S,35R)-1,18-dihydroxy-12-[(1R)-2-[(1S,3R,4R)-4-(2-hydroxyethoxy)-3-methoxy-cyclohexyl]-1-methyl-ethyl]-19-methoxy-15,17,21,23,29,35-hexamethyl-30-(oxetan-3-ylmethoxy)-11,36-dioxa-4-azatricyclo[30.3.1.04,9]hexatriaconta-16,24,26,28-tetraene-2,3,10,14,20-pentone] were < 0.8 nM, 500 to 1100 nM and 0.3 to 1 nM.
For `COCCO[C@H]1C[C@@H]2CC[C@@H](C)[C@@](O)(O2)C(=O)C(=O)N2CCCCC2C(=O)O[C@H]([C@H](C)C[C@@H]2CC[C@@H](OCCCN3CCN(C)CC3)[C@H](OC)C2)CC(=O)[C@H](C)/C=C(\C)[C@@H](O)[C@@H](OC)C(=O)[C@H](C)C[C@H](C)/C=C/C=C/C=C/1C` (relative stereo) [Compound 431, (1R,9S,12S,15R,16E,18R,19R,21R,23S,24E,26E,28E,30S*,32S,35R)-1,18-dihydroxy-19-methoxy-30-(2-methoxyethoxy)-12-[(1R)-2-[(1S,3R,4R)-3-methoxy-4-[3-(4-methylpiperazin-1-yl)propoxy]cyclohexyl]-1-methyl-ethyl]-15,17,21,23,29,35-hexamethyl-11,36-dioxa-4-azatricyclo[30.3.1.0^4,9]hexatriaconta-16,24,26,28-tetraene-2,3,10,14,20-pentone] the same measures were < 0.8 nM, < 500 nM and 0.3 to 1 nM.
For `COCCO[C@@H]1C[C@@H]2CC[C@@H](C)[C@@](O)(O2)C(=O)C(=O)N2CCCC[C@H]2C(=O)O[C@H]([C@H](C)C[C@@H]2CC[C@@H](OCCCO)[C@H](OC)C2)CC(=O)[C@H](C)/C=C(\C)[C@@H](O)[C@@H](OC)C(=O)[C@H](C)C[C@H](C)/C=C/C=C/C=C/1C` [Compound 28, (1R,9S,12S,15R,16E,18R,19R,21R,23S,24E,26E,28E,30R,32S,35R)-1,18-dihydroxy-12-[(1R)-2-[(1S,3R,4R)-4-(3-hydroxypropoxy)-3-methoxy-cyclohexyl]-1-methyl-ethyl]-19-methoxy-30-(2-methoxyethoxy)-15,17,21,23,29,35-hexamethyl-11,36-dioxa-4-azatricyclo[30.3.1.04,9]hexatriaconta-16,24,26,28-tetraene-2,3,10,14,20-pentone] the same measures were > 1.5 nM, 500 to 1100 nM and > 1 nM.
Consider `CO[C@@H]1C[C@H](C[C@@H](C)[C@@H]2CC(=O)[C@H](C)/C=C(\C)[C@@H](O)[C@@H](OC)C(=O)[C@H](C)C[C@H](C)/C=C/C=C/C=C(\C)[C@H](OC3COC3)C[C@@H]3CC[C@@H](C)[C@@](O)(O3)C(=O)C(=O)N3CCCC[C@H]3C(=O)O2)CC[C@H]1O` [Compound 124, (1R,9S,12S,15R,16E,18R,19R,21R,23S,24E,26E,28E,30R,32S,35R)-1,18-dihydroxy-12-[(2R)-1-[(1S,3R,4R)-4-hydroxy-3-methoxycyclohexyl]propan-2-yl]-19-methoxy-15,17,21,23,29,35-hexamethyl-30-(oxetan-3-yloxy)-11,36-dioxa-4-azatricyclo[30.3.1.04,9]hexatriaconta-16,24,26,28-tetraene-2,3,10,14,20-pentone], for which the IC50 in test [1] is > 1.5 nM. Also, the values for the Kd in test [2] and in test [3] were > 1100 nM and < 0.3 nM, respectively.
Take `CO[C@@H]1C[C@H](C[C@@H](C)[C@@H]2CC(=O)[C@H](C)/C=C(\C)[C@@H](O)[C@@H](OC)C(=O)[C@H](C)C[C@H](C)/C=C/C=C/C=C(\C)[C@@H](OCC3COC3)C[C@@H]3CC[C@@H](C)[C@@](O)(O3)C(=O)C(=O)N3CCCC[C@H]3C(=O)O2)CC[C@H]1O` [Compound 521, (1R,9S,12S,15R,16E,18R,19R,21R,23S,24E,26E,28E,30S,32S,35R)-1,18-dihydroxy-12-[(2R)-1-[(1S,3R,4R)-4-hydroxy-3-methoxycyclohexyl]propan-2-yl]-19-methoxy-15,17,21,23,29,35-hexamethyl-30-[(oxetan-3-yl)methoxy]-11,36-dioxa-4-azatricyclo[30.3.1.04,9]hexatriaconta-16,24,26,28-tetraene-2,3,10,14,20-pentone]: in test [1], the IC50 was < 0.8 nM. For the same molecule, the Kd in test [2] was 500 to 1100 nM; in test [3] it was < 0.3 nM.
For `CO[C@@H]1C[C@H](C[C@@H](C)[C@@H]2CC(=O)[C@H](C)/C=C(\C)[C@@H](O)[C@@H](OC)C(=O)[C@H](C)C[C@H](C)/C=C/C=C/C=C(\C)[C@H](OCC3COC3)C[C@@H]3CC[C@@H](C)[C@@](O)(O3)C(=O)C(=O)N3CCCC[C@H]3C(=O)O2)CC[C@H]1OCCO` [Compound 75, (1R,9S,12S,15R,16E,18R,19R,21R,23S,24E,26E,28E,30R,32S,35R)-1,18-dihydroxy-12-[(1R)-2-[(1S,3R,4R)-4-(2-hydroxyethoxy)-3-methoxy-cyclohexyl]-1-methyl-ethyl]-19-methoxy-15,17,21,23,29,35-hexamethyl-30-(oxetan-3-ylmethoxy)-11,36-dioxa-4-azatricyclo[30.3.1.04,9]hexatriaconta-16,24,26,28-tetraene-2,3,10,14,20-pentone] the same measures were > 1.5 nM, > 1100 nM and 0.3 to 1 nM.

The values above are taken from patent US20230331737A1, “MTORC1 MODULATORS AND USES THEREOF” (Aeovian Pharmaceuticals, Inc., priority 2020, published 2023).
